In paper PMC9867442, “Indole Derivatives Bearing Imidazole, Benzothiazole-2-Thione or Benzoxazole-2-Thione Moieties—Synthesis, Structure and Evaluation of Their Cytoprotective, Antioxidant, Antibacterial and Fungicidal Activities” (Molecules, 2023):

Tested on: Poria placenta (Pp)
Test: Antifungal agar-plate method
Assay type: cell-based
Conditions: concentration 0.0001%, read-out: Antifungal activity (inhibition of mycelial growth)
Procedure: (§1) Fungal strains: Coriolus versicolor (Cv), Poria placenta (Pp), Coniophora puteana (Cp) and Gloeophyllum trabeum (Gt) were used as a test organism for the experimental determination of the antifungal activity of 1–11. The fungus were obtained from the collection of the Department of Wood Chemical Technology, Faculty of Forestry and Wood Technology, Poznań, University of Life Sciences, Poland. The fungal growth rates were measured in 90 mm-diameter plastic dishes using the agar-plate method, described by Ważny and Thorton. Five concentrations of gramine and its derivatives in the range of 0.1% to 0.00001% were studied. The compound was applied on the agar (2% agar and 5% malt-extract) prepared on the Petri dish and previously autoclaved. The combination of the compound and fungus was repeated three times. Given sample was centrally inoculated with a 5 mm diameter disc taken from the submargin of 5-day-old malt agar plates. The plates were incubated in darkness at 21 ± 2 °C and 70 ± 5% relative air humidity. The growth duration was determined by the total coverage of the reference plate. The radius of the area covered by the fungus compared with the reference agar plate was employed to calculate the effective doses, ED50, of preservative concentrations retarding the fungal growth rate by 50%.

Row | SMILES | inhibition of growth at 0.0001 % [%]
1 | CCc1nccn1Cc1c[nH]c2ccccc12 [Compound 4, 3-((2-ethyl-1H-imidazol-1-yl)methyl)-1H-indole] | 16
2 | CC(C)c1nccn1Cc1c[nH]c2ccccc12 [Compound 5, 3-((2-isopropyl-1H-imidazol-1-yl)methyl)-1H-indole] | 1

Same assay, conditions: concentration 0.001%, read-out: Antifungal activity (inhibition of mycelial growth)

Row | SMILES | inhibition of growth at 0.001 % [%]
3 | CCc1nccn1Cc1c[nH]c2ccccc12 [Compound 4, 3-((2-ethyl-1H-imidazol-1-yl)methyl)-1H-indole] | 18
4 | CC(C)c1nccn1Cc1c[nH]c2ccccc12 [Compound 5, 3-((2-isopropyl-1H-imidazol-1-yl)methyl)-1H-indole] | 6

Same assay, conditions: concentration 0.01%, read-out: Antifungal activity (inhibition of mycelial growth)

Row | SMILES | inhibition of growth at 0.01 % [%]
5 | CCc1nccn1Cc1c[nH]c2ccccc12 [Compound 4, 3-((2-ethyl-1H-imidazol-1-yl)methyl)-1H-indole] | 32
6 | CC(C)c1nccn1Cc1c[nH]c2ccccc12 [Compound 5, 3-((2-isopropyl-1H-imidazol-1-yl)methyl)-1H-indole] | 21

Same assay, conditions: concentration 0.1%, read-out: Antifungal activity (inhibition of mycelial growth)

Row | SMILES | inhibition of growth at 0.1 % [%]
7 | CCc1nccn1Cc1c[nH]c2ccccc12 [Compound 4, 3-((2-ethyl-1H-imidazol-1-yl)methyl)-1H-indole] | 100
8 | CC(C)c1nccn1Cc1c[nH]c2ccccc12 [Compound 5, 3-((2-isopropyl-1H-imidazol-1-yl)methyl)-1H-indole] | 100

Tested on: Coniophora puteana (Cp)
Test: Antifungal agar-plate method
Assay type: cell-based
Conditions: Coniophora puteana, concentration 0.0001%, read-out: Antifungal activity (inhibition of mycelial growth)
Procedure: as §1

Row | SMILES | inhibition of growth at 0.0001 % [%]
9 | CCc1nccn1Cc1c[nH]c2ccccc12 [Compound 4, 3-((2-ethyl-1H-imidazol-1-yl)methyl)-1H-indole] | 13
10 | CC(C)c1nccn1Cc1c[nH]c2ccccc12 [Compound 5, 3-((2-isopropyl-1H-imidazol-1-yl)methyl)-1H-indole] | 13

Same assay, conditions: Coniophora puteana, concentration 0.001%, read-out: Antifungal activity (inhibition of mycelial growth)

Row | SMILES | inhibition of growth at 0.001 % [%]
11 | CCc1nccn1Cc1c[nH]c2ccccc12 [Compound 4, 3-((2-ethyl-1H-imidazol-1-yl)methyl)-1H-indole] | 15
12 | CC(C)c1nccn1Cc1c[nH]c2ccccc12 [Compound 5, 3-((2-isopropyl-1H-imidazol-1-yl)methyl)-1H-indole] | 14

Same assay, conditions: Coniophora puteana, concentration 0.01%, read-out: Antifungal activity (inhibition of mycelial growth)

Row | SMILES | inhibition of growth at 0.01 % [%]
13 | CCc1nccn1Cc1c[nH]c2ccccc12 [Compound 4, 3-((2-ethyl-1H-imidazol-1-yl)methyl)-1H-indole] | 37
14 | CC(C)c1nccn1Cc1c[nH]c2ccccc12 [Compound 5, 3-((2-isopropyl-1H-imidazol-1-yl)methyl)-1H-indole] | 26

Same assay, conditions: Coniophora puteana, concentration 0.1%, read-out: Antifungal activity (inhibition of mycelial growth)

Row | SMILES | inhibition of growth at 0.1 % [%]
15 | CCc1nccn1Cc1c[nH]c2ccccc12 [Compound 4, 3-((2-ethyl-1H-imidazol-1-yl)methyl)-1H-indole] | 100
16 | CC(C)c1nccn1Cc1c[nH]c2ccccc12 [Compound 5, 3-((2-isopropyl-1H-imidazol-1-yl)methyl)-1H-indole] | 100

Tested on: Gloeophyllum trabeum (Gt)
Test: Antifungal agar-plate method
Assay type: cell-based
Conditions: Gloeophyllum trabeum, concentration 0.0001%, read-out: Antifungal activity (inhibition of mycelial growth)
Procedure: as §1

Row | SMILES | inhibition of growth at 0.0001 % [%]
17 | CCc1nccn1Cc1c[nH]c2ccccc12 [Compound 4, 3-((2-ethyl-1H-imidazol-1-yl)methyl)-1H-indole] | 8
18 | CC(C)c1nccn1Cc1c[nH]c2ccccc12 [Compound 5, 3-((2-isopropyl-1H-imidazol-1-yl)methyl)-1H-indole] | 12

Same assay, conditions: Gloeophyllum trabeum, concentration 0.001%, read-out: Antifungal activity (inhibition of mycelial growth)

Row | SMILES | inhibition of growth at 0.001 % [%]
19 | CCc1nccn1Cc1c[nH]c2ccccc12 [Compound 4, 3-((2-ethyl-1H-imidazol-1-yl)methyl)-1H-indole] | 11
20 | CC(C)c1nccn1Cc1c[nH]c2ccccc12 [Compound 5, 3-((2-isopropyl-1H-imidazol-1-yl)methyl)-1H-indole] | 16

Same assay, conditions: Gloeophyllum trabeum, concentration 0.01%, read-out: Antifungal activity (inhibition of mycelial growth)

Row | SMILES | inhibition of growth at 0.01 % [%]
21 | CCc1nccn1Cc1c[nH]c2ccccc12 [Compound 4, 3-((2-ethyl-1H-imidazol-1-yl)methyl)-1H-indole] | 30
22 | CC(C)c1nccn1Cc1c[nH]c2ccccc12 [Compound 5, 3-((2-isopropyl-1H-imidazol-1-yl)methyl)-1H-indole] | 17

Same assay, conditions: Gloeophyllum trabeum, concentration 0.1%, read-out: Antifungal activity (inhibition of mycelial growth)

Row | SMILES | inhibition of growth at 0.1 % [%]
23 | CCc1nccn1Cc1c[nH]c2ccccc12 [Compound 4, 3-((2-ethyl-1H-imidazol-1-yl)methyl)-1H-indole] | 100
24 | CC(C)c1nccn1Cc1c[nH]c2ccccc12 [Compound 5, 3-((2-isopropyl-1H-imidazol-1-yl)methyl)-1H-indole] | 100

Tested on: Coriolus versicolor (Cv)
Test: Antifungal agar-plate method
Assay type: cell-based
Conditions: Trametes versicolor, concentration 0.0001%, read-out: Antifungal activity (inhibition of mycelial growth)
Procedure: as §1

Row | SMILES | inhibition of growth at 0.0001 % [%]
25 | CCc1nccn1Cc1c[nH]c2ccccc12 [Compound 4, 3-((2-ethyl-1H-imidazol-1-yl)methyl)-1H-indole] | 6
26 | CC(C)c1nccn1Cc1c[nH]c2ccccc12 [Compound 5, 3-((2-isopropyl-1H-imidazol-1-yl)methyl)-1H-indole] | 13

Same assay, conditions: Trametes versicolor, concentration 0.001%, read-out: Antifungal activity (inhibition of mycelial growth)

Row | SMILES | inhibition of growth at 0.001 % [%]
27 | CCc1nccn1Cc1c[nH]c2ccccc12 [Compound 4, 3-((2-ethyl-1H-imidazol-1-yl)methyl)-1H-indole] | 13
28 | CC(C)c1nccn1Cc1c[nH]c2ccccc12 [Compound 5, 3-((2-isopropyl-1H-imidazol-1-yl)methyl)-1H-indole] | 12

Same assay, conditions: Trametes versicolor, concentration 0.01%, read-out: Antifungal activity (inhibition of mycelial growth)

Row | SMILES | inhibition of growth at 0.01 % [%]
29 | CCc1nccn1Cc1c[nH]c2ccccc12 [Compound 4, 3-((2-ethyl-1H-imidazol-1-yl)methyl)-1H-indole] | 43
30 | CC(C)c1nccn1Cc1c[nH]c2ccccc12 [Compound 5, 3-((2-isopropyl-1H-imidazol-1-yl)methyl)-1H-indole] | 43

Same assay, conditions: Trametes versicolor, concentration 0.1%, read-out: Antifungal activity (inhibition of mycelial growth)

Row | SMILES | inhibition of growth at 0.1 % [%]
31 | CCc1nccn1Cc1c[nH]c2ccccc12 [Compound 4, 3-((2-ethyl-1H-imidazol-1-yl)methyl)-1H-indole] | 100
32 | CC(C)c1nccn1Cc1c[nH]c2ccccc12 [Compound 5, 3-((2-isopropyl-1H-imidazol-1-yl)methyl)-1H-indole] | 100

Tested on: not given
Test: not given
Conditions: not given

Row | melting point [°C] | SMILES
33 | 183 to 186 | CCc1nccn1Cc1c[nH]c2ccccc12 [Compound 4, 3-((2-ethyl-1H-imidazol-1-yl)methyl)-1H-indole]
34 | 183 to 185 | CC(C)c1nccn1Cc1c[nH]c2ccccc12 [Compound 5, 3-((2-isopropyl-1H-imidazol-1-yl)methyl)-1H-indole]

Tested on: Escherichia coli
Test: Antibacterial well-diffusion method
Assay type: cell-based
Conditions: 0.1 mL of compound in DMSO, 48 h, 37 °C
Procedure: (§2) The antimicrobial properties of compounds were determined against selected bacteria: Micrococcus luteus, Bacillus subtilis, Escherichia coli and Pseudomonas fluorescens which came from the collection of Pure Cultures of the Facility of Microbiology of the Department of Soil Science and Microbiology of the Poznan University of Life Sciences. The well-diffusion method was used to evaluate the antimicrobial properties of compounds. 6 mL each of liquidized broth medium was poured into sterile Petri dishes and allowed to solidify. After which, two sterile glass rings with a diameter of 0.5 cm were placed on the surface of each plate. Then 20 mL each of liquid broth medium containing suspensions of the tested bacterial strains at a density of 10^7 cells/cm3, obtained from 48-h cultures on broth […], was introduced. After the medium solidified, the glass rings were removed with a pencil, obtaining two wells on each plate. 0.1 mL of compound dissolved in pure dimethyl sulphoxide was introduced into one well, and 0.1 mL of pure dimethyl sulphoxide was introduced into the other well, which was as a control. Each compound was tested in four replicates. The plates were incubated for 48 h in a thermostat at 27 °C for M. luteus, B. subtilis and P. fluorescens cultures, and the E. coli culture at 37 °C. At the end of the incubation, the diameters of growth inhibition of the tested strains were measured using calipers.

Row | SMILES | Zone of Growth Inhibition [mm]
35 | CCc1nccn1Cc1c[nH]c2ccccc12 [Compound 4, 3-((2-ethyl-1H-imidazol-1-yl)methyl)-1H-indole] | 3.8
36 | CC(C)c1nccn1Cc1c[nH]c2ccccc12 [Compound 5, 3-((2-isopropyl-1H-imidazol-1-yl)methyl)-1H-indole] | 3

Tested on: Bacillus subtilis
Test: Antibacterial well-diffusion method
Assay type: cell-based
Conditions: 0.1 mL of compound in DMSO, 48 h, 27 °C
Procedure: as §2

Row | SMILES | Zone of Growth Inhibition [mm]
37 | CCc1nccn1Cc1c[nH]c2ccccc12 [Compound 4, 3-((2-ethyl-1H-imidazol-1-yl)methyl)-1H-indole] | 4.3
38 | CC(C)c1nccn1Cc1c[nH]c2ccccc12 [Compound 5, 3-((2-isopropyl-1H-imidazol-1-yl)methyl)-1H-indole] | 1.8

Tested on: Pseudomonas fluorescens
Test: Antibacterial well-diffusion method
Assay type: cell-based
Conditions: 0.1 mL of compound in DMSO, 48 h, 27 °C
Procedure: as §2

Row | SMILES | Zone of Growth Inhibition [mm]
39 | CCc1nccn1Cc1c[nH]c2ccccc12 [Compound 4, 3-((2-ethyl-1H-imidazol-1-yl)methyl)-1H-indole] | 3
40 | CC(C)c1nccn1Cc1c[nH]c2ccccc12 [Compound 5, 3-((2-isopropyl-1H-imidazol-1-yl)methyl)-1H-indole] | 0

Tested on: Micrococcus luteus
Test: Antibacterial well-diffusion method
Assay type: cell-based
Conditions: Micrococus luteus, 0.1 mL of compound in DMSO, 48 h, 27 °C
Procedure: as §2

Row | SMILES | Zone of Growth Inhibition [mm]
41 | CCc1nccn1Cc1c[nH]c2ccccc12 [Compound 4, 3-((2-ethyl-1H-imidazol-1-yl)methyl)-1H-indole] | 8.8
42 | CC(C)c1nccn1Cc1c[nH]c2ccccc12 [Compound 5, 3-((2-isopropyl-1H-imidazol-1-yl)methyl)-1H-indole] | 3
